One data set concerns adult ACC neurons. Briefly: LTP induced by theta-burst stimulation (TBS) in ACC slices. The format is cell-based, mouse. As to conditions: 0.3 μM. On the procedure: Coronal brain slices ([…]) from 6-8-week-old C57BL/6 mice, containing ACC or hippocampus, were prepared using standard methods (Wei et al., 2001). Slices were transferred to a submerged recovery chamber containing oxygenated (95% O2 and 5% CO2) artificial cerebrospinal fluid (ACSF) (in mM: 124 NaCl, 4.4 KCl, 2 CaCl2, 1 MgSO4, 25 NaHCO3, 1 NaH2PO4, 10 glucose) at room temperature for at least 1 h.
Experiments were performed in a recording chamber on the stage of an Axioskop 2FS microscope with infrared DIC optics for visualizing whole-cell patch clamp recordings. EPSCs were recorded from layer II-III neurons using an Axon 200B amplifier (Axon Instruments, CA) and stimulations were delivered using a bipolar tungsten stimulating electrode placed in layer V of the ACC. In hippocampal slices, EPSCs were evoked by stimulating the Schaffer collateral-commissural pathway. EPSCs were induced by repetitive stimulations at 0.02 Hz and neurons were voltage clamped at −70 mV. The recording pipettes (3-5 MΩ) were filled with solution containing (mM) 145 K-gluconate, 5 NaCl, 1 MgCl2, 0.2 EGTA, 10 HEPES, 2 Mg-ATP, and 0.1 Na3-GTP (adjusted to pH 7.2 with KOH). After obtaining stable EPSCs for 10 min, three kinds of LTP induction paradigms were used within 12 min after establishing the whole-cell configuration to prevent wash out effect on LTP induction (Tsvetkov et al., 2002). The first protocol involved paired presynaptic 80 pulses at 2 Hz with postsynaptic depolarization at +30 mV (referred to as pairing training). The second involved paired 3 presynaptic stimuli that caused 3 EPSPs (10 ms ahead) with 3 postsynaptic APs at 30 Hz, paired 15 times every 5 s (named as EPSPs-APs protocol). The third involved theta-burst stimulation (5 trains of burst with 4 pulses at 100 Hz, at 200 ms interval; repeated 4 times at intervals of 10 s; named as TBS). The NMDAR-mediated component of EPSCs was pharmacologically isolated in Mg^2+-free ACSF containing: CNQX (20 μM), glycine (1 μM) and picrotoxin (100 μM). The patch electrodes contained (in mM) 102 cesium gluconate, 5 TEA-chloride, 3.7 NaCl, 11 BAPTA, 0.2 EGTA, 20 HEPES, 2 MgATP, 0.3 NaGTP, and 5 QX-314 chloride (adjusted to pH 7.2 with CsOH). Neurons were voltage clamped at −60 mV and NMDARs-mediated EPSCs were evoked at 0.05 Hz. Picrotoxin (100 μM) was always present to block GABAA receptor-mediated inhibitory synaptic currents. The access resistance was 15-30 MΩ and was monitored throughout the experiment. Data were discarded if access resistance changed by more than 15% during an experiment. Results are expressed as means±SEM. Statistical comparisons were performed using the Student t-test. […]

A further data set relates to NR2B. The data set can be described thus: Western blot of NR2B in ACC after siRNA electroporation. Type of data set: in vivo, mouse. As to conditions: four days after electroporation. On the procedure:
Equal amounts of protein from the ACC and hippocampus were separated and electrotransferred onto PDVF membranes (Invitrogen), which were probed with anti-NR2A, anti-NR2B (Chemicon), and anti-PSD-95 (ABR) and with β-actin (Sigma) as a loading control. The membranes were incubated with horseradish peroxidase-conjugated secondary antibodies (anti-mouse IgG for PSD-95 and anti-rabbit IgG for the other primary antibodies), and bands were visualized using an ECL system (Perkin Elmer). Synaptosomal membrane fractions (LP1) were prepared as previously described (Dunah and Standaert, 2001) and solubilized using 1% SDS in TEVP buffer: 10 mM Tris-HCl, pH 7.4, 1 mM EDTA, 1 mM EGTA, 1× protease inhibitor cocktail (Sigma), and 1× phosphatase inhibitor cocktail 1 and 2 (Sigma). […] Results are expressed as means±SEM. […]
To inhibit NR2B expression specifically in the prefrontal cortex, including the ACC, siRNA was bilaterally delivered against NR2B with a reporter plasmid encoding EGFP by microelectroporation (Wei et al., 2003) (FIG. 8A). […] The expression levels of other NMDAR subunits (NR2A and NR1) and AMPA receptor subunit GluR1 were measured, and actin was used as a control in the ACCs of NR2B siRNA and control siRNA electroporated mice.
In general terms: In western blotting, separated proteins are transferred to a membrane and probed.

With `C[C@@H](CN1CCC(Cc2ccccc2)CC1)[C@@H](O)c1ccc(O)cc1` [Ro25-6981], the “LTP after TBS, % of baseline” value in the data set with adult ACC neurons came out at 105.5±8.3%. Moreover, in the data set on adult ACC neurons (FIG. 4E), the “effect on LTP induced by TBS” value is “blocked”.
On to “NR2B siRNA: siRNA corresponding to NR2B, sense 5′-GGAUGAGUCCUCCAUGUUCtt-3′, antisense 5′-GAACAUGGAGGACUCAUCCtt-3′, Silencer Pre-designed siRNA ID #61879, Ambion (sense GGAUGAGUCCUCCAUGUUCTT; antisense GAACAUGGAGGACUCAUCCTT; chemistry not given here)”, for which, in the data set on NR2B, the “NR2B expression compared to control siRNA electroporated control” value worked out at 64.8±4.6%.

These data come from US20070161592A1, “Method of treating fear” (priority 2005, published 2007).
